Data published in ChEMBL document CHEMBL1240346, “AC220 is a uniquely potent and selective inhibitor of FLT3 for the treatment of acute myeloid leukemia (AML)” (Blood, 2009).

Tests used:
Ephrin type-A receptor 7 = Ephrin type-A receptor 7 (Homo sapiens, UniProt Q15375)
Description: Binding affinity to EPHA7

MV4-11 = assay: cells; details: Homo sapiens, MV4-11, 72 h
Description: Cytotoxicity against human MV4-11 cells after 72 hrs by cell titer-blue assay

in vivo [1] = details: nu/nu, mouse, po, 10 mg/kg
in vivo [2] = details: nu/nu, mouse, po, 10 mg/kg; remark: listed apart in the source
in vivo [3] = details: nu/nu, mouse, plasma, po, 10 mg/kg
in vitro [4] = details: human, A375 cells
Description: Toxicity against human A375 cells after 72 hrs by cell titer-blue assay

[5] = target: T1, Poly [ADP-ribose] polymerase tankyrase-2 (Homo sapiens, UniProt Q9H2K2)
T1 sequence (Q9H2K2 whole entry): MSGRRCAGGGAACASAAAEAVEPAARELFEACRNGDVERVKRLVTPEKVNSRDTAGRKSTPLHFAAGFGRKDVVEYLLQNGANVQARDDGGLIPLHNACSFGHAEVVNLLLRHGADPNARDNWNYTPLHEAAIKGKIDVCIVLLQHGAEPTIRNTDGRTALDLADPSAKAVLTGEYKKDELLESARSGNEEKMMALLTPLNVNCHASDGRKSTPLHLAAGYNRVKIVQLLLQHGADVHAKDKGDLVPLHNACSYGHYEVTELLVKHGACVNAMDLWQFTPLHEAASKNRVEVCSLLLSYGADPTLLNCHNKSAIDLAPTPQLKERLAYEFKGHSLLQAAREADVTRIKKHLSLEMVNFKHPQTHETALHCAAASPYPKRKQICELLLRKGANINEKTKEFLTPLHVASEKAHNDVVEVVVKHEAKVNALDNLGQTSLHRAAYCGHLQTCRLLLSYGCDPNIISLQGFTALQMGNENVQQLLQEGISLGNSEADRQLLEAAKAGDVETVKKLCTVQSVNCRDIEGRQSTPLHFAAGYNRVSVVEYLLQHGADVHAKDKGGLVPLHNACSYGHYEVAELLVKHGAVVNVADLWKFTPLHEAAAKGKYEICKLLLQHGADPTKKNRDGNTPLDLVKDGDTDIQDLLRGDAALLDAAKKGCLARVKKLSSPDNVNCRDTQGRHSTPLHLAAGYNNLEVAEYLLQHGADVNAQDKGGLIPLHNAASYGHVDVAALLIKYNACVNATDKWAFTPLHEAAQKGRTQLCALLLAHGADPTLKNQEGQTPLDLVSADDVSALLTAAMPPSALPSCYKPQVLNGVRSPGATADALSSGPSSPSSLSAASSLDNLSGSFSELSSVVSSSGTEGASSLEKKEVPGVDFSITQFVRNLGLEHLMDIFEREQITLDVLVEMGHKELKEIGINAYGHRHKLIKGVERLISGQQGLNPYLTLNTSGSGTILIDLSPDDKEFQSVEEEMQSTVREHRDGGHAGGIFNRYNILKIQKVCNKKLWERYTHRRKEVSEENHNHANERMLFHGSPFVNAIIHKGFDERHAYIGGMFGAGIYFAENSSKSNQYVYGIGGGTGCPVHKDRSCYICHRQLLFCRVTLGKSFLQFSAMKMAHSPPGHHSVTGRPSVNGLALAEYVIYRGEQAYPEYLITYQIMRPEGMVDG

in vitro [6] = details: mouse, plasma
Description: Plasma protein binding in mouse

Ephrin type-A receptor 7, sequence (Q15375 whole entry): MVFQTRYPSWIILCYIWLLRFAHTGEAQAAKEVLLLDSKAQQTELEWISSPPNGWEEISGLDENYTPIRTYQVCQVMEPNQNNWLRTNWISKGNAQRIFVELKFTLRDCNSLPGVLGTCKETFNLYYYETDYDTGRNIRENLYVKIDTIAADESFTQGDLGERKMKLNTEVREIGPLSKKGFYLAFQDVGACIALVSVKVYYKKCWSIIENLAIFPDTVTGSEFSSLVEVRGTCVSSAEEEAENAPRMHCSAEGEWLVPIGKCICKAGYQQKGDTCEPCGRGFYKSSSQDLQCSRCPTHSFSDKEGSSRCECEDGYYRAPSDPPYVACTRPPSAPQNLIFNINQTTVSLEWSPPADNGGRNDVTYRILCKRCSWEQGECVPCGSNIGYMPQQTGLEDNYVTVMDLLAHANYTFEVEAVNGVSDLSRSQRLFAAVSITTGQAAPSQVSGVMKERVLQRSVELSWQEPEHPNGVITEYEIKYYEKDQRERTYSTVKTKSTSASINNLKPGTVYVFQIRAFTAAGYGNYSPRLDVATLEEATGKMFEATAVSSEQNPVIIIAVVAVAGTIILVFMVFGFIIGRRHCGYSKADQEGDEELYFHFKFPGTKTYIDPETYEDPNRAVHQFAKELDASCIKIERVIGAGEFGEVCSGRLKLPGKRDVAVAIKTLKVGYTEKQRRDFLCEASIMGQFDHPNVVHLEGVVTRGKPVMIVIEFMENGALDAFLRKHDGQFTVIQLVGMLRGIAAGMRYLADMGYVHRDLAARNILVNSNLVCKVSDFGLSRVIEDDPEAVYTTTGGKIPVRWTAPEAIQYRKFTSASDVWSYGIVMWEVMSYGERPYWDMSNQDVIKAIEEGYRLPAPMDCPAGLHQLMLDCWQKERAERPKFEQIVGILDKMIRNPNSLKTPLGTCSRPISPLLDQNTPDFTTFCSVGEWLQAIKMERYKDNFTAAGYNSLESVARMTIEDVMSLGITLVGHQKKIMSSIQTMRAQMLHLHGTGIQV

| Kd (Ephrin type-A receptor 7) [µM] | IC50 (MV4-11) [µM] | Cmax (in vivo [1]) [nM] | Tmax (in vivo [2]) [min] | AUC(0-t) at 24 h (in vivo [3]) [µM·h] | IC50 at 72 h (in vitro [4]) [µM] | Kd [5] [µM] | fraction unbound (in vitro [6]) | Compound |
| --- | --- | --- | --- | --- | --- | --- | --- | --- |
| > 10 | 0.064 | 2300 | 40.2 | 8.4 | 0.53 |  |  | CO[C@@H]1[C@H](N(C)C(=O)c2ccccc2)C[C@H]2O[C@]1(C)n1c3ccccc3c3c4c(c5c6ccccc6n2c5c31)C(=O)N[C@H]4O [CGP-52421] |
|  | 0.06 | 81 | 60 | 0.28 | > 10 | > 10 | 0.02 | COc1cc2c(N3CCN(C(=O)Nc4ccc(OC(C)C)cc4)CC3)ncnc2cc1OCCCN1CCCCC1 [TANDUTINIB] |
